{"source": "patent US20170260183A1", "about": "“BICYCLIC COMPOUNDS AS PEST CONTROL AGENTS” (BAYER CROPSCIENCE AKTIENGESELLSCHAFT, priority 2014, published 2017)", "key": {"Aphis gossypii": {"tested_on": "Aphis gossypii", "experiment": "Aphis gossypii - spray test", "type": "in vivo", "conditions": "application rate 4 ppm; after 6 days; sprayed cotton plants; 100% = all aphids killed", "description": "Aphis gossypii—Spray Test • Solvent: 7 parts by weight of dimethylformamide • Emulsifier: alkylaryl polyglycol ether\nTo produce a suitable active ingredient formulation, 1 part by weight of active ingredient is dissolved with the specified parts by weight of solvent and made up with water containing an emulsifier concentration of 1000 ppm until the desired concentration is attained. To produce further test concentrations, the formulation is diluted with emulsifier-containing water. If the addition of ammonium salts or/and penetrants is required, these are each added in a concentration of 1000 ppm to the formulation solution.\nCotton plants (Gossypium hirsutum) heavily infested by the cotton aphid (Aphis gossypii) are sprayed with an active ingredient formulation of the desired concentration.\nAfter 6 days, the kill in % is determined. 100% means that all the aphids have been killed and 0% means that none of the aphids have been killed."}, "[1]": {"experiment": "logP determination by HPLC on reversed-phase columns (OECD Guideline 117)", "type": "physicochemical", "conditions": "reversed-phase (C18) HPLC column", "description": "The logP values were determined in accordance with OECD Guideline 117 (EC Directive 92/69/EEC) by HPLC (high-performance liquid chromatography) using reversed-phase (RP) columns (C18), by the following methods: [a] The LC-MS determination in the acidic range is carried out at pH 2.7 with 0.1% aqueous formic acid and acetonitrile (contains 0.1% formic acid) as eluents; linear gradient from 10% acetonitrile to 95% acetonitrile. [b] LC-MS determination in the neutral range is effected at pH 7.8 with 0.001 molar aqueous ammonium hydrogencarbonate solution and acetonitrile as eluents; linear gradient from 10% acetonitrile to 95% acetonitrile. Calibration is effected using unbranched alkan-2-ones (having 3 to 16 carbon atoms) with known logP values (logP values determined on the basis of the retention times by linear interpolation between two successive alkanone s)."}, "Myzus persicae": {"tested_on": "Myzus persicae", "experiment": "Myzus persicae - spray test", "type": "in vivo", "conditions": "foliar, 144 h, application rate 500 g/ha, after 6 days, sprayed Chinese cabbage leaf discs, 100% = all aphids killed, read-out: efficacy in %", "description": "Myzus persicae—Spray Test • Solvent: 78 parts by weight of acetone • 1.5 parts by weight of dimethylformamide • Emulsifier: alkylaryl polyglycol ether […] To produce further test concentrations, the formulation is diluted with emulsifier-containing water. Discs of Chinese cabbage leaves (Brassica pekinensis) infested by all stages of the green peach aphid (Myzus persicae) are sprayed with an active ingredient formulation of the desired concentration. After 6 days, the efficacy in % is determined. 100% means that all the aphids have been killed and 0% means that none of the aphids have been killed."}, "[2]": {"conditions": "neutral range, pH 7.8, 0.001 molar aqueous ammonium hydrogencarbonate and acetonitrile, read-out: logP[b]"}, "[3]": {"conditions": "acidic range, pH 2.7, 0.1% aqueous formic acid and acetonitrile, read-out: logP[a]"}}, "note": "Where two headings read alike, the source gives them in different places."}
{"smiles": "CC(=O)Nc1cnc2nn(-c3cccnc3)cc2c1", "note": "[Example 1, 5-N-Acetylamino-2-(3-pyridyl)-pyrazolo[3,4-b]pyridine]", "values": [{"measurement": "efficacy (kill in %)", "setting": "Aphis gossypii", "result": 95, "unit": "%"}, {"measurement": "chromatographic logP", "setting": "[1]; [2]", "result": 0.54}]}
{"smiles": "Cc1cc(F)c(-c2cnc3nn(-c4cccnc4)cc3c2)cc1SCC(F)(F)F", "note": "[Example 2, 5-[2-Fluoro-4-methyl-5-(2,2,2-trifluoroethylsulphanyl)phenyl]-2-(3-pyridyl)pyrazolo[3,4-b]pyridine]", "values": [{"measurement": "chromatographic logP", "setting": "[1]; [3]", "result": 3.44}, {"measurement": "chromatographic logP", "setting": "[1]; [2]", "result": 3.22}, {"measurement": "pest or weed control at 500 g/ha", "setting": "Myzus persicae", "result": 90, "unit": "%"}]}
{"smiles": "Cc1cc(F)c(-c2cnc3nn(-c4cccnc4)cc3c2)cc1[S+]([O-])CC(F)(F)F", "note": "(centres unmarked) [Example 3, 5-[2-fluoro-4-methyl-5-(2,2,2-trifluoroethylsulphinyl)phenyl]-2-(3-pyridyl)pyrazolo [3,4-b]pyridine]", "values": [{"measurement": "chromatographic logP", "setting": "[1]; [3]", "result": 2.14}, {"measurement": "chromatographic logP", "setting": "[1]; [2]", "result": 2.11}, {"measurement": "pest or weed control at 500 g/ha", "setting": "Myzus persicae", "result": 90, "unit": "%"}]}
{"smiles": "Cc1ccc(-c2cnc3nn(-c4cccnc4)cc3c2)cc1SCC(F)(F)F", "note": "[Example 4, 5-[4-methyl-3-(2,2,2-trifluoroethylsulphanyl)phenyl]-2-(3-pyridyl)pyrazolo[3,4-b]pyridine]", "values": [{"measurement": "chromatographic logP", "setting": "[1]; [3]", "result": 3.14}, {"measurement": "chromatographic logP", "setting": "[1]; [2]", "result": 3.1}, {"measurement": "pest or weed control at 500 g/ha", "setting": "Myzus persicae", "result": 100, "unit": "%"}]}
{"smiles": "Cc1ccc(-c2cnc3nn(-c4cccnc4)cc3c2)cc1[S+]([O-])CC(F)(F)F", "note": "(centres unmarked) [Example 5, 5-[4-METHYL-3-(2,2,2-TRIFLUOROETHYLSULPHINYL)PHENYL]-2-(3-PYRIDYL)PYRAZOLO [3,4-B]PYRIDINE]", "values": [{"measurement": "chromatographic logP", "setting": "[1]; [3]", "result": 2.07}, {"measurement": "chromatographic logP", "setting": "[1]; [2]", "result": 2.03}, {"measurement": "pest or weed control at 500 g/ha", "setting": "Myzus persicae", "result": 100, "unit": "%"}]}
{"smiles": "CSCCC(=O)Nc1cnc2nn(-c3cccnc3)cc2c1", "note": "[Example 6, 3-methylsulphanyl-N-[2-(3-pyridyl)pyrazolo [3,4-b]pyridin-5-yl]propanamide]", "values": [{"measurement": "chromatographic logP", "setting": "[1]; [3]", "result": 1.15}, {"measurement": "chromatographic logP", "setting": "[1]; [2]", "result": 1.21}, {"measurement": "pest or weed control at 500 g/ha", "setting": "Myzus persicae", "result": 100, "unit": "%"}]}
{"smiles": "CC(F)(F)CC(=O)Nc1cnc2nn(-c3cccnc3)cc2c1", "note": "[Example 7, 3,3-DIFLUORO-N-[2-(3-PYRIDYL)PYRAZOLO[3,4-B]PYRIDIN-5-YL]BUTANAMIDE]", "values": [{"measurement": "chromatographic logP", "setting": "[1]; [3]", "result": 1.22}, {"measurement": "chromatographic logP", "setting": "[1]; [2]", "result": 1.22}, {"measurement": "pest or weed control at 500 g/ha", "setting": "Myzus persicae", "result": 90, "unit": "%"}]}
{"smiles": "Cn1cc(-c2cnc3nn(-c4cccnc4)cc3c2)cn1", "note": "[Example 8, 5-(1-methylpyrazol-4-yl)-2-(3-pyridyl)pyrazolo[3,4-b]pyridine]", "values": [{"measurement": "chromatographic logP", "setting": "[1]; [3]", "result": 1}, {"measurement": "chromatographic logP", "setting": "[1]; [2]", "result": 1.15}, {"measurement": "pest or weed control at 500 g/ha", "setting": "Myzus persicae", "result": 90, "unit": "%"}]}
{"smiles": "CSCCC(=O)N(C)c1cnc2nn(-c3cccnc3)cc2c1", "note": "[Example 10, N-[2-(3-pyridyl)pyrazolo[3,4-b]pyridin-5-yl]-N-methyl-3-methylsulphanylpropanamide]", "values": [{"measurement": "chromatographic logP", "setting": "[1]; [3]", "result": 1.16}, {"measurement": "chromatographic logP", "setting": "[1]; [2]", "result": 1.2}, {"measurement": "pest or weed control at 500 g/ha", "setting": "Myzus persicae", "result": 90, "unit": "%"}]}
